The source of these data is patent US12139505B2, “Compositions useful in therapy of autophagy-related pathologies, and methods of making and using the same” (The University of Toledo, priority 2017, dated 2024).

The test system of assay [1] is PINK1^B9 flies. Description: Fly climbing assay. Format: in vivo, Drosophila melanogaster. Particulars: 100 μM in media. Here is the method:
2-n-hexyl-LKE-P was dissolved in DMSO and supplemented into a warm solution of minimal media (5% sucrose, 2% agarose and water, 60° C.) to a final concentration of 10, 100 and 1000 μM. Freshly eclosed adult flies were transferred to minimal media containing the drug for one day followed by the experiments. The locomotive ability of flies was assessed 10 days after eclosion via a climbing assay. 15 flies were transferred to a tube marked 17.5 cm from the bottom and a digital camera, connected directly to a PC, recorded flies as they cross the line, continuously, for two minutes. Analysis of the recorded video was done by recording the number of flies that remain above the 17.5 cm line every ten seconds. If a fly climbs back down or falls, that fly is removed from the total count at the next 10 second time point. The percentage of flies remaining above the line at the 120 second time point was recorded. The 120 second time point was chosen because it has been previously determined that this is the average amount of time required for all untreated flies to cross the 17.5 cm mark.

Another assay has as its system RG2 glioma cells. The assay can be described thus: Proliferative capacity of glioma cells, tetrazolium reduction assay. Format: cell-based, rat. On the procedure: Biomarkers of autophagy have been positively correlated with relatively better prognosis (longer patient lifespan) in humans suffering from high grade glioma. Accordingly, phosphonate analogs were tested for ability to reduce replicative capacity in RG2 glioma cells wherein the compounds increase autophagy. Cells were plated at low density (approximately 25,000 cells/[…]) using general cell culture methods, and treated with logarithmic dilutions of test agent. After 24 or 48 hours, cell number was estimated by tetrazolium reduction assay using a commercially available kit (Promega Aqueous OneStep™). […] By 48 h the cells had largely achieved confluence and became somewhat contact inhibited, thus reducing the difference between control and treatment groups.

In assay [2] the test system is PINK1^B9 flies. The assay can be described thus: Fly longevity (survival) assay. It counts as in vivo, Drosophila melanogaster. Here is the method:
2-n-hexyl-LKE-P was dissolved in DMSO and supplemented into a warm solution of minimal media (5% sucrose, 2% agarose and water, 60° C.) to a final concentration of 10, 100 and 1000 μM. Freshly eclosed adult flies were transferred to minimal media containing the drug for one day followed by the experiments. 15 flies from each group were placed in a vial containing food, kept on its side to prevent the flies from sticking to the media, at 23° C., 60% humidity, under a 12-h light-dark cycle. Food vials were changed every 2-3 days and the dead flies were counted daily. Over 100 flies were prepared for each genotype and the experiments were carried out three times. The number of surviving flies on each day was converted to surviving days for each fly and imported to GraphPad Prism. Kaplan-Meier surviving curves were graphed and statistics was performed by log-rank test on the surviving data to compare the longevity with different treatment.

The structures appear in SMILES notation. Entries after “also recorded” stand apart in the source; their conditions may differ.

In the case of `CCCCCCC1=C(P(=O)(O)O)N[C@H](C(=O)OCC)CS1` [2-n-hexyl-LKE-P], in the assay with PINK1^B9 flies [1], the “climbing ability of PINK1^B9 flies” value is on record as “statistically significant improvement in the climbing ability; also recorded: significant improvement of PINK1^B9 climbing ability”. Also, in the assay on RG2 glioma cells (24 h, greater than or equal to 1 nM), the “fewer cells (reduced replicative capacity) relative to cells treated with no drug” value is “at least 50%”. The “concentration range of the minimum in cell number” value in the assay with RG2 glioma cells (48 h) lay within 1 to 10 mM. Also, in the assay with RG2 glioma cells (first 24 h), the replication of cultures entry is reported as “replicated more slowly in the first 24 h”. The “survival of PINK1^B9 flies” value in the assay on PINK1^B9 flies [2] (10 μM in media) and in the assay with PINK1^B9 flies [2] (100 μM in media) was “did not significantly affect the survival” each time. The “lifespan of PINK1^B9 flies” value in the assay with PINK1^B9 flies [2] (1000 μM in media) is “extended the lifespan; also recorded: significantly increased the PINK1^B9 lifespan”; in the assay with PINK1^B9 flies [2] (dose not stated (summary)), “more than double the lifespan”.
